Results taken from patent EP2161028B1, “Food product comprising dipeptides having antihypertensive properties” (Unilever N.V., priority 2008, dated 2011).
Peptide text beside a SMILES is read from it.

Parameters: AUC: unit not given beside the values
Protocol: The pH of simulated gastric fluid (SGF, 0.15 M NaCl, pH 2.5) was increased to 7.5 with […] (40 mM), and the following compounds were added to adjust the pH to 6.8 and simulate a duodenal-jejunal environment and create simulated small intestinal fluid (SIF): (i) a bile salt mixture containing equimolar quantities (0.125 M) of sodium taurocholate and glycodeoxycholic acid in NaHC03 (1 M), (ii) solutions of pancreatin from porcine pancreas (9 mg/mL) in water was prepared and added at approximately physiological ratios. The pH was adjusted to 6.8 with HCl (0.1 M). Peptides were dissolved in SIF at a final peptide concentration of 50 µM. Aliquots (1 mL) were prepared for sampling at different time points. Simulated intestinal digestion was carried out at 37°C, and aliquots (1 mL) were taken at 0, 5, 15, and 60 min after the start of the experiment. After peptide hydrolysis, digestive enzymes were inactivated at 95°C for 15 min and samples were cooled immediately on ice water and stored at -20°C until further analysis.
Quantification of dipeptides derived from digestion were performed using a liquid chromatography multiple reaction ion monitoring-mass spectrometry (LC-MRM-MS) method as described van Platerink CJ, Janssen HG, Horsten R, Haverkamp J. Quantification of ACE inhibiting peptides in human plasma using high performance liquid chromatography-mass spectrometry. J Chromatogr B Analyt Technol Biomed Life Sci 2006,830:151-157. Peptide separation was performed on an Atlantis Hilic Silica column (2.1 x 150 mm, 3 µm particle size) and a Micromass Quattro-II (Milford MA, USA) with HP1100LC system (Hewlett-Packard, USA). The gradient started at 100% 0.1 % trifluoro acetic acid in Milli-Q water and ended at 70% 0.1% trifluoro acetic acid in acetonitrile. To support the ionization, a 70/30 mixture of propionic acid and propanol-2 was added postcolumn at a flow rate of […]. All analyses were conducted on an Alliance 2795 HPLC (Waters, Milford MA, USA) combined with a Quattro Premier triple quadrupole mass spectrometer from the same supplier.
An intestinal stability data set consisting of 228 dipeptides was generated based on the results from the simulated digestion experiments. The area under the time - peptide concentration curve was calculated and used for further analysis and modelling. An ACE inhibitory dipeptide database consisting of 228 dipeptides was constructed.
For each peptide the relative stability (in % of initial dipeptide concentration) was plotted against time and the area under the curve (AUC) was calculated.

| AUC | intestinal stability (in words) | Structure (SMILES) |
| --- | --- | --- |
| – | high intestinal stability | N[C@@H](Cc1c[nH]c2ccccc12)C(=O)N[C@@H](CC(=O)O)C(=O)O [WD] (H-Trp-Asp-OH) |
| – | high intestinal stability | N[C@@H](Cc1c[nH]c2ccccc12)C(=O)N[C@@H](CO)C(=O)O [WS] (H-Trp-Ser-OH) |
| – | high intestinal stability | C[C@@H](O)[C@H](NC(=O)[C@@H](N)Cc1c[nH]c2ccccc12)C(=O)O [WT] (H-Trp-Thr-OH) |

More lines, now with the values behind:

| Structure (SMILES) | AUC | intestinal stability (in words) |
| --- | --- | --- |
| C[C@H](NC(=O)[C@@H](N)CS)C(=O)O [CA] (H-Cys-Ala-OH) | 0 | – |
| C[C@@H](O)[C@H](NC(=O)[C@@H](N)CS)C(=O)O [CT] (H-Cys-Thr-OH) | – | high intestinal stability |
| C[C@@H](O)[C@H](NC(=O)[C@@H](N)CC(=O)O)C(=O)O [DT] (H-Asp-Thr-OH) | – | high intestinal stability |
